Measurements reported in patent US6706509B2, “Oncoprotein protein kinase” (The Regents of the University of California, priority 1993, dated 2004).

Columns and labels:
Format in all cases: cell-based, human
[1] = system: N-terminal c-Jun kinase (JNK); experiment: Solid-phase kinase assay of N-terminal c-Jun kinase activity in HeLa cell extracts; conditions: HeLa S3 cells, TPA 100 ng/ml
Procedure: (§1) Cell extracts were diluted so that the final composition of the WCE buffer was 20 mM HEPES pH 7.7, 75 mM NaCl, 2.5 mM MgCl2, 0.1 mM EDTA, 0.05% Triton X-100, 0.5 mM DTT, 20 mM β-glycerolphosphate, 0.1 mM Na3VO4, 2 μg/ml leupeptin, 100 μg/ml PMSF. The extracts were mixed with 10 μl of GSH-agarose suspension (Sigma) to which 10 μg of either GST or GST-Jun fusion proteins were bound. The mixture was rotated at 4° C. for 3 hours in a microfuge tube and pelleted by centrifugation at 10,000×g for 20 sec. After 4×1 ml washes in HEPES binding buffer (20 mM HEPES pH 7.7, 50 mM NaCl, 2.5 mM MgCl2, 0.1 mM EDTA, 0.05% Triton X-100), the pelleted beads were resuspended in 30 μl of kinase buffer (20 mM HEPES pH 7.6, 20 mM MgCl2, 20 mM β-glycerolphosphate, […] p-nitrophenyl phosphate, 0.1 mM Na3VO4, 2 mM DTT) containing 20 μM ATP and 5 μCi γ-^32P-ATP. After 20 minutes at 30° C. the reaction was terminated by washing with HEPES binding buffer. Phosphorylated proteins were eluted with 30 μl of 1.5×Laemlli sample buffer and resolved on a 10% SDS polyacrylamide gel, followed by autoradiography. Quantitation of phosphate incorporated was determined by gel slicing and scintillation counting. Phosphorylated GST fusion proteins were eluted from gel slices and subjected to phosphopeptide mapping as described (Boyle, et al., supra, 1991). […]

[2] = system: N-terminal c-Jun kinase (JNK); experiment: Solid-phase kinase assay of N-terminal c-Jun kinase activity in Jurkat cell extracts; conditions: Jurkat cells, TPA 50 ng/ml, after 30 minutes
Procedure: as §1

jun-D = experiment: Northern blot of jun-D expression in Jurkat cells; conditions: CsA 100 ng/ml, 40 minutes
Procedure: Exponentially growing Jurkat cells (10^6/ml) grown in complete RPMI medium was pretreated with CsA for 15 minutes when applicable, then subjected to various treatments for another 40 minutes. Total cytoplasmic RNA was extracted as previously described (Angel, et al., Cell, 49:729-739, 1987). 10 μg RNA was denatured by incubating with glyoxal for 60 minutes at 55° C. and fractionated on a 1% agarose gel in phosphate buffer. The fractionated RNA was blotted to Zetabind Nylon membrane (CUNO Labs) and hybridized to ^32P-labelled cDNA probes specific for c-jun, jun-B, jun-D, c-fos, α-tubulin and IL-2.
During the first stage of T lymphocyte activation, early response genes are rapidly included (Crabtree, Science, 243:355,361, 1989; Zipfel, et al., Mol Cell Bio., 9:1041-1048, 1989). Induction of jun and fos genes during activation of the Jurkat T cell line was investigated. […] After fractionation of 10 μg samples on an agarose gel and transfer to nylon membrane, the level of c-jun, jun-B, jun-D, c-fos and α-tubulin expression was determined by hybridization to random primed cDNA probes.

Molecule	N-terminal c-Jun kinase activity, effect of treatment [1]	N-terminal kinase activity, activation [2] [fold]	effect on potentiation of jun-D expression by TPA+A23187 (jun-D)
CCCCCCCCCCCCCC(=O)O[C@@H]1[C@@H](C)[C@@]2(O)[C@@H](C=C(CO)C[C@]3(O)C(=O)C(C)=C[C@@H]23)[C@H]2C(C)(C)[C@]12OC(C)=O [TPA]	minor compared to that of UV	25	
cyclosporin A [CsA]			not inhibited
